Reference: patent publication US20100256104A1, “NOVEL AMIDE COMPOUNDS” (ASTRAZENECA R&D, priority 2009, published 2010)

Biological target: T1, recombinant human GR (Homo sapiens, UniProt P04150)
T1 construct: purchased Panvera/Invitrogen P2812 (kit P2893)
T1 sequence (P04150 1-777): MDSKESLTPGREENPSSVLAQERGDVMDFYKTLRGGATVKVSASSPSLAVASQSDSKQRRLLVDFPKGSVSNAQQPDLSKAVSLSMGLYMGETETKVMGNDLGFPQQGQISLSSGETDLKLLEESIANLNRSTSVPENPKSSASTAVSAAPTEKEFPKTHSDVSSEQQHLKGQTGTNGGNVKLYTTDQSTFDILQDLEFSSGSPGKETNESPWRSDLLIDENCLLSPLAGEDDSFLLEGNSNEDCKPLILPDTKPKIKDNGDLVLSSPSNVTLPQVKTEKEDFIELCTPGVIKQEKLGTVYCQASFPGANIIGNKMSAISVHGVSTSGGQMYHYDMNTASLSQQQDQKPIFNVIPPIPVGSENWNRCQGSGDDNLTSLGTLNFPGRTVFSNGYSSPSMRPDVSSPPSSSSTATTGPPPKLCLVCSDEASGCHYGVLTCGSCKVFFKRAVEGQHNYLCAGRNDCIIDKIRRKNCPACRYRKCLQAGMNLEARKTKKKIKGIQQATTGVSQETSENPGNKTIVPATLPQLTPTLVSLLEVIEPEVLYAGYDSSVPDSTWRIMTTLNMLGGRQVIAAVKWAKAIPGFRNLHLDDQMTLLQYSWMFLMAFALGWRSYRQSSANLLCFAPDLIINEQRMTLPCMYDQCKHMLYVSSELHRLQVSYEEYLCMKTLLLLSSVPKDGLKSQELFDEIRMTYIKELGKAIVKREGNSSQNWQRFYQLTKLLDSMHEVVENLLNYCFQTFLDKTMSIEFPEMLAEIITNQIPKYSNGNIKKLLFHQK
Experiment: Human Glucocorticoid Receptor (GR) Assay, fluorescence polarization competition with GS Red tracer
Conditions: 2 hours at room temperature, 100% control 10 μM Dexamethasone, XLfit model 205, read-out: Inhibition of GR binding, IC50
Summary of the method: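 Fluorescence polarization competition: recombinant human GR with GS Red tracer, stabilizing peptide and DTT in potassium phosphate/sodium molybdate/EDTA buffer. 2 h in dark at room temperature, read at ex 530/em 590 nm. Controls: DMSO (0%) and 10 μM dexamethasone (100%).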

| Compound | IC50 [nM] |
| --- | --- |
| CCC(=O)O[C@]1(C(=O)SCF)CC[C@H]2[C@@H]3CCC4=Cc5c(cnn5-c5cccc(C(=O)NCC(=O)NC)c5)C[C@]4(C)[C@@]3(F)[C@@H](O)C[C@@]21C [Example 36, (1R,3aS,3bS,10aS, 10bR,11S,12aS)-10b-fluoro-1-{[(fluoromethyl)sulfanyl]carbonyl}-11-hydroxy-10a,12a-dimethyl-7-(3-{[2-(methylamino)-2-oxoethyl]carbamoyl}phenyl)-1,2,3,3a,3b,4,5,7,10,10a, 10b,11,12,12a-tetradecahydrocyclo-penta[5,6]naphtho [1,2-f]indazol-1-yl propanoate] | 0.84 |
| CCC(=O)O[C@]1(C(=O)SC)CC[C@H]2[C@@H]3CCC4=Cc5c(cnn5-c5cccc(C(=O)N6CCC[C@@H]6C(N)=O)c5)C[C@]4(C)[C@@]3(F)[C@@H](O)C[C@@]21C [Example 59, (1R,3aS,3bS,10aS, 10bR,11S,12aS)-7-(3-{[(2R)-2-carbamoyl-pyrrolidin-1-yl]carbonyl}phenyl)-10b-fluoro-11-hydroxy-10a,12a-dimethyl-1-[(methylsulfanyl)carbonyl]-1,2,3,3a,3b,4,5,7,10, 10a,10b,11,12,12a-tetradecahydrocyclo-penta[5,6]naphtho [1,2-f]indazol-1-yl propanoate] | 3.3 |
| COCC(=O)O[C@]1(C(=O)SCF)CC[C@H]2[C@@H]3C[C@H](C)C4=Cc5c(cnn5-c5cccc(C(=O)NCC(N)=O)c5)C[C@]4(C)[C@H]3[C@@H](O)C[C@@]21C [Example 38, (1R,3aS,3bS,5S, 10aR,10bS,11S,12aS)-7-{3-[(2-amino-2-oxoethyl)carbamoyl]phenyl}-1-{[(fluoromethyl)sulfanyl]carbonyl}-11-hydroxy-5,10a, 12a-trimethyl-1,2,3,3a,3b,4,5,7,10, 10a,10b,11,12,12a-tetradecahydrocyclo-penta[5,6]naphtho [1,2-f]indazol-1-yl methoxyacetate] | 8.3 |
| CCC(=O)O[C@]1(C(=O)SCC#N)CC[C@H]2[C@@H]3CCC4=Cc5c(cnn5-c5cccc(C(=O)N6CCC[C@@H]6C(N)=O)c5)C[C@]4(C)[C@H]3[C@@H](O)C[C@@]21C [Example 14, (1R,3aS,3bS,10aR,10bS,11S,12aS)-7-(3-{[(2R)-2-Carbamoylpyrrolidin-1-yl]carbonyl}phenyl)-1-{[(cyanomethyl)sulfanyl]carbonyl}-11-hydroxy-10a,12a-dimethyl-1,2,3,3a,3b,4,5,7,10,10a,10b,11,12,12a-tetradecahydrocyclopenta[5,6]naphtho[1,2-f]indazol-1-yl propanoate] | 6 |
| COCC(=O)O[C@]1(C(=O)SCC#N)CC[C@H]2[C@@H]3CCC4=Cc5c(cnn5-c5cccc(C(=O)NCC(N)=O)c5)C[C@]4(C)[C@H]3[C@@H](O)C[C@@]21C [Example 51, (1R,3aS,3bS,10aR, 10bS,11S,12aS)-7-{3-[(2-amino-2-oxoethyl)carbamoyl]phenyl}-1-{[(cyanomethyl)sulfanyl]carbonyl}-11-hydroxy-10a,12a-dimethyl-1,2,3,3a,3b,4,5,7,10, 10a,10b,11,12,12a-tetradecahydrocyclo-penta[5,6]naphtho [1,2-f]indazol-1-yl methoxyacetate] | 2.8 |
| CCC(=O)O[C@]1(C(=O)SCF)CC[C@H]2[C@@H]3CCC4=Cc5c(cnn5-c5cccc(C(=O)NC6CCCC6)c5)C[C@]4(C)[C@H]3[C@@H](O)C[C@@]21C [Example 62, (1R,3aS,3bS,10aR, 10bS,11S,12aS)-7-[3-(cyclopentylcarbamoyl)phenyl]-1-{[(fluoromethyl)sulfanyl]carbonyl}-11-hydroxy-10a,12a-dimethyl-1,2,3,3a,3b,4,5,7,10, 10a,10b,11,12,12a-tetradecahydrocyclo-penta[5,6]naphtho [1,2-f]indazol-1-yl propanoate] | 3.6 |
| C[C@]12Cc3cnn(-c4cccc(C(=O)N5CCC[C@@H]5C(N)=O)c4)c3C=C1CC[C@H]1[C@@H]3CC[C@](OC(=O)C4CC4)(C(=O)SCF)[C@@]3(C)C[C@H](O)[C@@]12F [Example 55, (1R,3aS,3bS,10aS, 10bR,11S,12aS)-7-(3-{[(2R)-2-carbamoyl-pyrrolidin-1-yl]carbonyl}phenyl)-10b-fluoro-1-{[(fluoromethyl)sulfanyl]carbonyl}-11-hydroxy-10a,12a-dimethyl-1,2,3,3a,3b,4,5,7,10, 10a,10b,11,12,12a-tetradecahydrocyclo-penta[5,6]naphtho [1,2-f]indazol-1-yl cyclopropanecarboxylate] | 3.5 |
| COCC(=O)O[C@]1(C(=O)SCF)CC[C@H]2[C@@H]3CCC4=Cc5c(cnn5-c5cccc(C(=O)N6CCC[C@@H]6C(N)=O)c5)C[C@]4(C)[C@@]3(F)[C@@H](O)C[C@@]21C [Example 15, (1R,3aS,3bS,10aS,10bR,11S,12aS)-7-(3-{[(2R)-2-Carbamoylpyrrolidin-1-yl]carbonyl}phenyl)-10b-fluoro-1-{[(fluoromethyl)sulfanyl]carbonyl}-11-hydroxy-10a,12a-dimethyl-1,2,3,3a,3b,4,5,7,10,10a,10b,11,12,12a-tetradecahydrocyclopenta[5,6]naphtho[1,2-f]indazol-1-yl methoxyacetate] | 4.3 |
| COCC(=O)O[C@]1(C(=O)SCF)[C@H](C)C[C@H]2[C@@H]3CCC4=Cc5c(cnn5-c5cccc(C(=O)NCc6cccnc6)c5)C[C@]4(C)[C@@]3(F)[C@@H](O)C[C@@]21C [Example 46, (1R,2R,3aS,3bS, 10aS,10bR,11S,12aS)-10b-fluoro-1-{[(fluoromethyl)sulfanyl]carbonyl}-11-hydroxy-2,10a,12a-trimethyl-7-{3-[(pyridin-3-ylmethyl)carbamoyl]phenyl}-1,2,3,3a,3b,4,5,7,10, 10a,10b,11,12,12a-tetradecahydrocyclo-penta[5,6]naphtho [1,2-f]indazol-1-yl methoxyacetate] | 3.3 |
| COCC(=O)O[C@]1(C(=O)SCF)CC[C@H]2[C@@H]3CCC4=Cc5c(cnn5-c5cccc(C(=O)N6CCC[C@@H]6C(N)=O)c5)C[C@]4(C)[C@H]3[C@@H](O)C[C@@]21C [Example 16, (1R,3aS,3bS,10aR,10bS,11S, 12aS)-7-(3-{[(2R)-2-carba-moylpyrrolidin-1-yl]carbonyl}phenyl)-1-{[(fluoromethyl)sulfanyl]carbonyl}-11-hydroxy-10a,12a-dimethyl-1,2,3,3a,3b,4,5,7,10,10a,10b, 11,12,12a-tetradecahydro-cyclopenta[5,6]naphtho[1,2-f] indazol-1-yl methoxyacetate] | 9 |
| CNC(=O)c1cccc(-n2ncc3c2C=C2CC[C@H]4[C@@H]5C[C@@H](C)[C@](OC(=O)COC)(C(=O)SCF)[C@@]5(C)C[C@H](O)[C@]4(F)[C@@]2(C)C3)c1 [Example 28, 1R,2R,3aS,3bS, 10aS,10bR,11S,12aS)-10b-fluoro-1-{[(fluoromethyl)sulfanyl] carbonyl}-11-hydroxy-2,10a,12a-trimethyl-7[3-(methylcarbamoyl)phenyl]-1,2,3,3a,3b,4,5,7,10, 10a,10b,11,12,12a-tetradecahydrocyclo-penta[5,6]naphtho [1,2-f]indazol-1-yl methoxyacetate] | 2.3 |
| CCC(=O)O[C@]1(C(=O)SCF)CC[C@H]2[C@@H]3CCC4=Cc5c(cnn5-c5cccc(C(=O)N[C@H](C)C(N)=O)c5)C[C@]4(C)[C@@]3(F)[C@@H](O)C[C@@]21C [Example 32, (1R,3aS,3bS,10aS, 10bR,11S,12aS)-7-(3-{[(1R)-2-amino-1-methyl-2-oxoethyl]carbamoyl}phenyl)-10b-fluoro-1-{[(fluoromethyl)-sulfanyl]carbonyl}-11-hydroxy-10a,12a-dimethyl-1,2,3,3a,3b,4,5,7,10, 10a,10b,11,12,12a-tetradecahydrocyclo-penta[5,6]naphtho [1,2-f]indazol-1-yl propanoate] | 2.5 |
| C[C@]12Cc3cnn(-c4cccc(C(=O)N5CCC[C@@H]5C(N)=O)c4)c3C=C1CC[C@H]1[C@@H]3CC[C@](OC(=O)C4CC4)(C(=O)SCC#N)[C@@]3(C)C[C@H](O)[C@@]12F [Example 54, (1R,3aS,3bS,10aS, 10bR,11S,12aS)-7-(3-{[(2R)-2-carbamoyl-pyrrolidin-1-yl]carbonyl}phenyl)-1-{[(cyanomethyl)sulfanyl]carbonyl}-10b-fluoro-11-hydroxy-10a,12a-dimethyl-1,2,3,3a, 3b,4,5,7,10,10a,- 10b,11,12,12a-tetradeca-hydrocyclo-penta[5,6]naphtho [1,2-f]indazol-1-yl cyclopropanecarboxylate] | 4.2 |
